# Data published in PMC3406249 (Hepatology (Baltimore, Md.), 2012).
# No end group written: not given here.
# Experiments:
# [1] = system: HCVpp (H77); settings: 50% cell culture inhibitory concentration, HCVpp entry; mean ± SD
# [2] = system: JFH-1 HCVcc; settings: 12 h
# [3] = MTT assay; estimated
Sequence,IC50 [1] [µM],IC50 [2] [µM],50% cytotoxic concentration relative to IC50 [3] [fold]
GAIVSTALPQWRIYSYAG [CL58.6],23.8 ± 2.1,,
MANAGLQLLGFILAFLGW [CL58],,2,~100
